Drawing on patent US20100075965A1, “PI3 KINASE INHIBITORS AND METHODS OF THEIR USE” (Novartis AG, priority 2006, published 2010), this text covers EC50 and IC50 for 25 compounds.

Broadly, the EC50 is the concentration that produces a half-maximal response. Broadly, the IC50 is the concentration that inhibits the measured activity by half.

Assay [1] deals with A2780 cells. Kind of assay: Viability assay in A2780 (Cell Titer Glo). To be noted: Homo sapiens. It counts as cell-based, human. The gist of the method: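 A2780 cells (1,000/well, DMEM + 10% FBS) were exposed to 3-fold serial dilutions of compound for 72 hrs at 37° C, 5% CO2. Viable cells were read by Cell Titer Glo luminescence, in duplicate, and EC50 values were derived from the curves.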
In general terms: Cellular ATP, detected with luciferase, serves as a proxy for viable cell number.

The target of assay [2] is PI3 K Alpha (Homo sapiens, UniProt P42336). The assay is described as follows: PI3 kinase phosphorylation assays (homogenous solution phase, one step solid phase, ATP depletion/KinaseGlo). It counts as biochemical.
Sequence of PI3 K Alpha (P42336 whole entry): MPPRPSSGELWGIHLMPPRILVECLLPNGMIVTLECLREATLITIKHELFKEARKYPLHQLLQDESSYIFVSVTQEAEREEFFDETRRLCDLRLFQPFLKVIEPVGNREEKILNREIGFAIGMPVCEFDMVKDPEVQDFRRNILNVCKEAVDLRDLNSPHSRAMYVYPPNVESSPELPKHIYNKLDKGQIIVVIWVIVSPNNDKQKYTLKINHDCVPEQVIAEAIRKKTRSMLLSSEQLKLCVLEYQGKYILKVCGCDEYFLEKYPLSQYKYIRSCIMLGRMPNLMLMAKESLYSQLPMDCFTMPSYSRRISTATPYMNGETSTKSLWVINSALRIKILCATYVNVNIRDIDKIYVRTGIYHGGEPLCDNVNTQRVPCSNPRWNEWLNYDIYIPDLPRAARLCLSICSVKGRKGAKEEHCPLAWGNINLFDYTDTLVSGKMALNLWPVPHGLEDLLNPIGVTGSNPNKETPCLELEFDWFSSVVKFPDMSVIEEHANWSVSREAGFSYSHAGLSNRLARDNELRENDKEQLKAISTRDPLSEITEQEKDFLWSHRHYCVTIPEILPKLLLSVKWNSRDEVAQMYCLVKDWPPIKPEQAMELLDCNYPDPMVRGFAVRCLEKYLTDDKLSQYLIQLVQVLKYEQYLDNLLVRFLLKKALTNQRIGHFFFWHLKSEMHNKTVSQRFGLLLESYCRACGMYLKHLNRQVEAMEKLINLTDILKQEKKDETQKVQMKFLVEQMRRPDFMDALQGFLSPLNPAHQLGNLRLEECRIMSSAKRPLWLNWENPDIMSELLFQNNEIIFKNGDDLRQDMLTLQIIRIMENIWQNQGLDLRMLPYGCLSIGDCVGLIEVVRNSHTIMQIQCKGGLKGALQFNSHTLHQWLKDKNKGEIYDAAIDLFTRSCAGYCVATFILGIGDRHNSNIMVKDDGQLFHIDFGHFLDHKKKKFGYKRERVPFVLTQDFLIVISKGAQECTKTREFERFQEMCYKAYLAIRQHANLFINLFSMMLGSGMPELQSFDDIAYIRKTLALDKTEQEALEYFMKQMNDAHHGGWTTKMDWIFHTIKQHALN
Sequence of PI3 K Alpha (P27986 whole entry partner): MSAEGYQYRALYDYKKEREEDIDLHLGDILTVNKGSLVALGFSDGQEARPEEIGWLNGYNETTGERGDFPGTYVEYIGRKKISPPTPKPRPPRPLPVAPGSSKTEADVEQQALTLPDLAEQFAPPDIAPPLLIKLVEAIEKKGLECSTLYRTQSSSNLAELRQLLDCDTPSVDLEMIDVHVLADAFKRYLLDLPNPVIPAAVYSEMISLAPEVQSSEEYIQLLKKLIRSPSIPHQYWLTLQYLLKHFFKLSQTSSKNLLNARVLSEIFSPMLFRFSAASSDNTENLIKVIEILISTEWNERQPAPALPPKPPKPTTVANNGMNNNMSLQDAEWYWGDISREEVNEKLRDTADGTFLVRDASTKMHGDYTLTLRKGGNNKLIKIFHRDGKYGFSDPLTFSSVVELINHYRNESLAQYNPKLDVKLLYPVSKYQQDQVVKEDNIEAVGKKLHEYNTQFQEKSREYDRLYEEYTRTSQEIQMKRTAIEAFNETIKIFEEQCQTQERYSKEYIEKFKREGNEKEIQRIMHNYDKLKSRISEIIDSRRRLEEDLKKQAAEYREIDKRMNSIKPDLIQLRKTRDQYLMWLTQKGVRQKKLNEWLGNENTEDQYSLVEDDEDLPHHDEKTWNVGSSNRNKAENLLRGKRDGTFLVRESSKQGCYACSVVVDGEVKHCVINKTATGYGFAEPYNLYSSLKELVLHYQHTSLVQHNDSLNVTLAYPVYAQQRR
Assay [3] has as its system pSer473-Akt in A2780 cells. The assay is described as follows: pSer473 Akt assay to monitor PI3K pathway in A2780 cells (MSD). In kind it is cell-based. Conditions: Homo sapiens. The procedure:
In this method, an assay for measuring the PI3K-mediated pSer^473-Akt status after treatment with representative inhibitor compounds of the preferred embodiments is described.
A2780 cells were cultured in DMEM supplemented with 10% FBS, L-glutamine, sodium pyruvate, and antibiotics. Cells were plated in the same medium at a density of 15,000 cells per well into 96 well tissue culture plates, with outside wells vacant, and allowed to adhere overnight.
Test compounds supplied in DMSO were diluted further into DMSO at 500 times the desired final concentrations before dilution into culture media to 2 times the final concentrations. Equal volumes of 2× compounds in media were added to the cells in 96 well plates and incubated at 37° C. for one hour. The media and compounds were then removed, the plates chilled and cells lysed in a lysis buffer (150 mM NaCl, 20 mM Tris pH 7.5, 1 mM EDTA, 1 mM EGTA, 1% Triton X-100) supplemented with phosphatase and protease inhibitors. After thorough mixing, lysates were transferred to both pSer473Akt and total Akt assay plates from Meso Scale Discovery (MSD), and incubated overnight with shaking at 4° C. The plates were washed with 1×MSD wash buffer and the captured analytes detected with secondary antibodies. After incubation with the secondary antibody at room temperature for 1-2 hours, the plates were washed again and 1.5× concentration of Read Buffer T (MSD) was added to the wells.
The assays were read on a SECTOR Imager 6000 instrument (Meso Scale Discovery). Ratios of the signal from pSer473Akt and total Akt assays were used to correct for any variability and the percent inhibition of pSer473Akt from the total signal seen in cells treated with compound versus DMSO alone was calculated and used to determine EC50 values for each compound as shown in Tables 1 and 2 in the column labeled “A2780 pAKT473 EC50”.

Setting [4] is: A2780 cells, read-out: A2780 Cell prolif. EC50.
Where [5] appears, read: A2780 cells, read-out: A2780 pAKT 473 EC50.
Where [6] appears, read: A2780 cells, 72 hrs, read-out: A2780 Cell prolif. EC50.
Where [7] appears, read: ATP depletion assay, read-out: PI3 K Alpha IC50.
Where [8] appears, read: 1 h, A2780 cells, one hour incubation, read-out: A2780 pAKT473 EC50.
The mark [9] stands for this setting: A2780, read-out: A2780 Cell prolif. EC50.
[10] abbreviates: A2780, read-out: A2780 pAKT 473 EC50.

Read-outs that look alike come from different tables or passages of the source. Some results are limits rather than exact numbers.

Take `Nc1ncc(-c2ccc3nc(NC(=O)CCCN4CCCCC4)cn3c2)cc1C(F)(F)F` [Example 25, N-[6-(6-Amino-5-trifluoromethyl-pyridin-3-yl)-imidazo[1,2-a]pyridin-2-yl]-4-piperidin-1-yl-butyramide]: the EC50 in assay [1] (setting [4]) was under 10000 nM; in assay [3] (setting [5]) it was under 1000 nM. The IC50 in assay [2] (read-out: PI3K Alpha IC50) is under 1000 nM.

In the case of `CC(=O)Nc1nc2ccc(-c3cnc(N)c(C(F)(F)F)c3)c(C)c2s1` [Example 2-27, N-[6-(6-Amino-5-trifluoromethyl-pyridin-3-yl)-7-methyl-benzothiazol-2-yl]-acetamide], the EC50 was under 10000 nM in assay [1] (setting [6]) and under 1000 nM in assay [3] (setting [8]). The IC50 in assay [2] (setting [7]) is under 1000 nM.

Regarding `COCCCOc1nc(-c2ccc3nc(NC(C)=O)cn3c2)cnc1N` [Example 73], the EC50 in assay [1] (setting [4]) and in assay [3] (setting [5]) was under 1000 nM each time. Also, in assay [2] (read-out: PI3K Alpha IC50), the IC50 is under 1000 nM.

In the case of `CC(=O)Nc1nc2ccc(-c3cnc(N)c(C(F)(F)F)c3)cn2c1C#CCN1CCOCC1` [Example 213, N-(6-(6-amino-5-(trifluoromethyl)pyridin-3-yl)-3-(3-morpholino-prop-1-ynyl)imidazo[1,2-a]pyridin-2-yl)acetamide], the EC50 in assay [1] (setting [4]) and in assay [3] (setting [5]) was under 10000 nM in each case. The IC50 in assay [2] (read-out: PI3K Alpha IC50) was under 1000 nM.

`COc1ccc(C#Cc2c(NC(C)=O)nc3ccc(-c4cnc(N)c(C(F)(F)F)c4)cn23)cc1` [Example 117, N-(6-(6-amino-5-(trifluoromethyl)pyridin-3-yl)-3-((4-methoxyphenyl)ethynyl)imidazo[1,2-a]pyridin-2-yl)acetamide]: the EC50 in assay [1] (setting [4]) was under 10000 nM; in assay [3] (setting [5]), under 1000 nM. Also, the IC50 in assay [2] (read-out: PI3K Alpha IC50) was under 1000 nM.

For `CC(=O)Nc1cn2cc(-c3ccc(N)nc3)ccc2n1` [Example 3, N-[6-(6-Amino-pyridin-3-yl)-imidazo[1,2-a]pyridin-2-yl]-acetamide], the EC50 was under 10000 nM in assay [1] (setting [4]) and under 1000 nM in assay [3] (setting [5]). For the same compound, the IC50 in assay [2] (read-out: PI3K Alpha IC50) was under 1000 nM.

For `CC(=O)Nc1cn2cc(-c3cnc(N)c(OC4CCC4)n3)ccc2n1` [Example 64, N-(6-(5-amino-6-cyclobutoxy-pyrazin-2-yl)imidazo[1,2-a]pyridin-2-yl)acetamide], the EC50 in assay [1] (setting [4]) and in assay [3] (setting [5]) was under 1000 nM throughout. In addition, the IC50 in assay [2] (read-out: PI3K Alpha IC50) is under 1000 nM.

Turning to `CC(=O)Nc1cn2cc(-c3cnc(N)c(C(F)(F)F)c3)cc(F)c2n1` [Example 190, N-(6-(6-amino-5-(trifluoromethyl)pyridin-3-yl)-8-fluoroimidazo [1,2-a]pyridin-2-yl)acetamide], the EC50 was under 10000 nM in assay [1] (setting [4]) and under 1000 nM in assay [3] (setting [5]). Moreover, the IC50 in assay [2] (read-out: PI3K Alpha IC50) is under 1000 nM.

For `CC(=O)Nc1cn2cc(-c3cnc(N)c(OC4CN(C(=O)c5ccccc5)C4)n3)ccc2n1` [Example 128, N-(6-(5-amino-6-(1-benzoylazetidin-3-yloxy)pyrazin-2-yl)imidazo[1,2-a]pyridin-2-yl)acetamide], the EC50 was under 10000 nM in assay [1] (setting [4]) and under 1000 nM in assay [3] (setting [5]). Besides, the IC50 in assay [2] (read-out: PI3K Alpha IC50) is under 1000 nM.

In the case of `CC(=O)Nc1cn2nc(-c3cnc(N)c(-c4ccccc4F)c3)ccc2n1` [Example 81, N-(6-(6-amino-5-(2-fluorophenyl)pyridin-3-yl)imidazo[1,2-b]pyridazin-2-yl)acetamide], the EC50 in assay [1] (setting [4]) and in assay [3] (setting [5]) was under 1000 nM each time. In addition, the IC50 in assay [2] (read-out: PI3K Alpha IC50) was under 1000 nM.

As to `CC(=O)Nc1cn2nc(-c3cnc(N)c(-c4ccccc4)c3)ccc2n1` [Example 84, N-(6-(6-amino-5-phenylpyridin-3-yl)imidazo[1,2-b]pyridazin-2-yl)acetamide], the EC50 in assay [1] (setting [4]) and in assay [3] (setting [5]) was under 1000 nM in each case. For the same compound, in assay [2] (read-out: PI3K Alpha IC50), the IC50 was under 1000 nM.

For the compound `CC(=O)Nc1cn2nc(-c3cnc(N)c(OC(F)F)c3)ccc2n1` [Example 72, N-(6-(6-amino-5-(difluoromethoxy)pyridin-3-yl)imidazo[1,2-b]pyridazin-2-yl)acetamide], the EC50 in assay [1] (setting [4]) and in assay [3] (setting [5]) was under 1000 nM in each case. Also, in assay [2] (read-out: PI3K Alpha IC50), the IC50 was under 1000 nM.

Consider `COc1ccc(CC(=O)Nc2cn3cc(-c4cnc(N)c(C(F)(F)F)c4)ccc3n2)cc1OC` [Example 51], for which the concentration giving a half-maximal response (EC50) is under 10000 nM in assay [1] (setting [4]) and under 1000 nM in assay [3] (setting [5]). Also, the IC50 in assay [2] (read-out: PI3K Alpha IC50) is under 1000 nM.

On to `COc1ccc(CC(=O)Nc2cn3cc(-c4cnc(N)c(C(F)(F)F)c4)ccc3n2)cc1` [Example 99, N-(6-(6-amino-5-(trifluoromethyl)pyridin-3-yl)imidazo[1,2-a]pyridin-2-yl)-2-(4-methoxyphenyl) acetamide], for which the EC50 in assay [1] (setting [4]) and in assay [3] (setting [5]) was under 1000 nM each time. Also, the IC50 in assay [2] (read-out: PI3K Alpha IC50) is under 1000 nM.

As for `Nc1ccc(-c2ccc3nc(NC(=O)OCCN4CCOCC4)sc3c2)cn1` [Example 2-24, [6-(6-Amino-pyridin-3-yl)-benzothiazol-2-yl]-carbamic acid 2-morpholin-4-yl-ethyl ester], the figures for the EC50 in assay [1] (setting [6]) and in assay [3] (setting [8]) were under 25000 nM and under 10000 nM, respectively. In addition, in assay [2] (setting [7]), the IC50 is under 1000 nM.

Turning to `CNCC(=O)Nc1cn2nc(-c3cnc(N)c(C(F)(F)F)c3)ccc2n1` [Example 60, N-(6-(6-amino-5-(trifluoromethyl)pyridin-3-yl)imidazo[1,2-b]pyridazin-2-yl)-2-(methylamino) acetamide], the EC50 in assay [1] (setting [4]) and in assay [3] (setting [5]) was under 1000 nM each time. In addition, the IC50 in assay [2] (read-out: PI3K Alpha IC50) is under 1000 nM.

Turning to `CC(=O)Nc1nc2ccc(-c3cnc(N)c(C(F)(F)F)c3)cn2c1Br` [Example 11, N-[6-(6-Amino-5-trifluoromethyl-pyridin-3-yl)-3-bromo-imidazo[1,2-a]pyridin-2-yl]-acetamide], the EC50 in assay [1] (setting [9]) was under 25000 nM; in assay [3] (setting [10]) it was under 10000 nM. In addition, the IC50 in assay [2] (read-out: PI3K Alpha IC50) was under 1000 nM.

Take `CC(=O)Nc1cn2cc(-c3cnc(N)c(Oc4cccnc4)n3)ccc2n1` [Example 91, N-(6-(5-amino-6-(pyridin-3-yloxy)pyrazin-2-yl)imidazo[1,2-a]pyridin-2-yl)acetamide]: the half-maximal effective concentration (EC50) in assay [1] (setting [4]) and in assay [3] (setting [5]) was under 1000 nM each time. Further, in assay [2] (read-out: PI3K Alpha IC50), the concentration for half-maximal inhibition (IC50) is under 1000 nM.

On to `CC(=O)Nc1cn2cc(-c3cnc(N)c(Cl)c3)ccc2n1` [Example 188, N-(6-(6-amino-5-chloropyridin-3-yl)imidazo[1,2-a]pyridin-2-yl)acetamide], for which the EC50 was under 10000 nM in assay [1] (setting [4]) and under 1000 nM in assay [3] (setting [5]). Moreover, the IC50 in assay [2] (read-out: PI3K Alpha IC50) is under 1000 nM.

`CC(=O)Nc1nc2ccc(-c3cnc(N)c(C(F)(F)F)c3)cn2c1C#Cc1cccnc1` [Example 83, N-(6-(6-amino-5-(trifluoromethyl)pyridin-3-yl)-3-(pyridin-3-ylethynyl)imi-dazo[1,2-a]pyridin-2-yl)acetamide]: the EC50 in assay [1] (setting [9]) and in assay [3] (setting [10]) was under 1000 nM throughout. The IC50 in assay [2] is under 1000 nM.

For `CC(=O)Nc1cn2nc(-c3cnc(N)c(Cl)c3)ccc2n1` [Example 87, N-(6-(6-amino-5-chloropyridin-3-yl)imidazo[1,2-b]pyridazin-2-yl)acetamide], the EC50 in assay [1] (setting [4]) and in assay [3] (setting [5]) was under 1000 nM throughout. For the same compound, the IC50 in assay [2] (read-out: PI3K Alpha IC50) is under 1000 nM.

With `CC(=O)Nc1cn2cc(-c3cnc(N)c(C)c3)ccc2n1` [Example 208, N-(6-(6-amino-5-methylpyridin-3-yl)imidazo[1,2-a]pyridin-2-yl)acetamide], the EC50 in assay [1] (setting [4]) is under 10000 nM; in assay [3] (setting [5]), under 1000 nM. In assay [2] (read-out: PI3K Alpha IC50), the IC50 was under 1000 nM.

For the compound `CCOc1nc(-c2ccc3nc(NC(C)=O)cn3n2)cnc1N` [Example 184, N-(6-(5-amino-6-ethoxypyrazin-2-yl)imidazo[1,2-b]pyridazin-2-yl)acetamide], the EC50 in assay [1] (setting [4]) is under 10000 nM; in assay [3] (setting [5]) it was under 1000 nM. In addition, the IC50 in assay [2] (read-out: PI3K Alpha IC50) is under 1000 nM.

For `NC(=O)[C@@H]1CCCN1C(=O)Nc1nc2ccc(-c3cnc(N)c(C(F)(F)F)c3)cc2s1` [Example 2-33, (S)-N1-(6-(6-amino-5-(trifluoromethyl)pyridin-3-yl)benzo[d]thiazol-2-yl)pyrrolidine-1,2-dicarboxamide], the EC50 in assay [1] (setting [6]) was under 10000 nM; in assay [3] (setting [8]), under 1000 nM. The IC50 in assay [2] (setting [7]) is under 1000 nM.

For `CNC(=O)c1ccc(-c2c(NC(C)=O)nc3ccc(-c4cnc(N)c(C(F)(F)F)c4)cn23)cc1` [Example 18, 4-[2-Acetylamino-6-(6-amino-5-trifluoromethyl-pyridin-3-yl)-imidazo[1,2-a]pyridin-3-yl]-N-methyl-benzamide], the EC50 in assay [1] (setting [4]) is under 25000 nM; in assay [3] (setting [5]) it was under 10000 nM. In addition, the IC50 in assay [2] (read-out: PI3K Alpha IC50) was under 1000 nM.
